Patent publication US12320800B2, “High-throughput automation of organoids for identifying therapeutic strategies” (UNIVERSITY OF WASHINGTON, priority 2018, dated 2025)
“Also recorded” adds a separate entry of the source.

What was measured:
[1] = system: PKD1−/− and PKD2−/− mutant organoids; assay: Prophylactic effect of myosin activators on cyst formation in PKD organoids in suspension; format: cell-based, human
Source text: (§1) Cyst formation. In adherent cultures (untreated), ‘cysts’ were identified as large, balloon-like, translucent structures that swayed in response to agitation. Flat rings and dilated tubules were not counted as cysts and occasionally appeared even in non-PKD controls. […] Wells were imaged using a Nikon TiE inverted wide-field microscope and cysts were quantified using ImageJ cell counter. To generate large cysts in suspension, adherent organoids were microdissected with a 23-gauge syringe needle from 24-well plates on an inverted phase-contrast microscope, and carefully transferred using a transfer pipette into a low-adhesion 6-well plate (Corning) containing 2 ml RB. The organoids were isolated on the twenty-first day of differentiation, before cysts formed. RB media was changed by gravity every three days, and cystogenesis was assessed at two weeks after replating.
EMD was efficient at rescuing cyst formation at the lowest dose tested (3 μM) and worked in both PKD1^−/− and PKD2^−/− mutant organoids.

cell stiffness = details: cited from earlier work
myosin = details: cited from earlier work; for effect: Table 5 listing
[2] = system: PKD organoids or isogenic controls; assay: Cyst formation in adherent kidney organoids treated with forskolin or 8-Br-cAMP; format: cell-based, human
Source text: as §1

[3] = system: Polycystic Kidney Disease (PKD) patients; details: cited from earlier work
[4] = system: PKD organoids (mutations in polycystin-1); assay: Small-scale screen of PKD cystogenesis modifiers in 96-well organoid plates; format: cell-based, human; set-up: dose or concentration left out as unconfirmed; details: 7 days, blebbistatin at highest concentration
Protocol: (§2) Cyst generation. PKD1^−/− and PKD2^−/− hPSCs or isogenic controls were differentiated in microwell plates in adherent cultures. Forskolin (Sigma) was added to microwell plates during automated liquid handling on the 21st day after differentiation. Large swellings rapidly developed and grew to full size over 72 hours. Cysts were identified by comparing images with captured with high-content imaging prior to forskolin treatment, and after 72 hours. Screening of PKD cystogenesis was performed in duplicate in 96-well plates to provide sufficient space and numbers of organoids per well. Factors were plated at four different concentrations for seven days, and the organoids were scanned visually on a phase-contrast microscope for increased or decreased cyst formation. […] Cyst diameters were measured using NIS Elements imaging software (Nikon). […]

PKD organoids = assay: Blebbistatin cystogenesis in suspension culture, PKD organoids; format: cell-based, human; set-up: time after which PKD organoids formed cysts: dose or concentration left out as unconfirmed
Protocol: Cyst generation. […] Forskolin (Sigma) was added to microwell plates during automated liquid handling on the 21st day after differentiation. Large swellings rapidly developed and grew to full size over 72 hours. Cysts were identified by comparing images with captured with high-content imaging prior to forskolin treatment, and after 72 hours. Screening of PKD cystogenesis was performed in duplicate in 96-well plates to provide sufficient space and numbers of organoids per well. Factors were plated at four different concentrations for seven days, and the organoids were scanned visually on a phase-contrast microscope for increased or decreased cyst formation. […] To test cystogenesis in suspension, adherent organoids were microdissected with a 23-gauge syringe needle from 24-well plates on an inverted phase-contrast microscope, and transferred into a low-adhesion 6-well plate (Corning) containing 2 mL RB or 2 mL RB with […] blebbistatin. Organoids were imaged daily on a Nikon Ti Inverted Widefield microscope for a period of 7 days. Cyst diameters were measured using NIS Elements imaging software (Nikon). Contiguous microscopic fields were collected using an automated stage and stitched together using NIS Elements software to generate large images of wells or plates.

[5] = system: control organoids of identical genetic background that lacked PKD mutations; assay: Blebbistatin cystogenesis in suspension culture, control organoids; format: cell-based, human; details: 3 days after treatment
Protocol: as §2, with “PKD1^−/− and PKD2^−/− hPSCs or isogenic controls were differentiated in microwell plates in adherent cultures.” left out

[6] = system: endothelial cells (ECs) in kidney organoid cultures
Protocol: Kidney differentiation in microwell plates. hPSCs were dissociated with Accutase (Stem Cell Technologies) and plated onto microwell plates pre-coated with GelTrex in mTeSR1 supplemented with 10 mMRho-kinase inhibitor Y27632 (StemGent). The media was replaced with mTeSR1+1.5% GelTrex at 16 hours, 12 mMCHIR99021 in Advanced RPMI+Glutamax (Life Technologies) at 60 hours, and RB (Advanced RPMI+Glutamax+B27 Supplement, from Life Technologies) at 96 hours. […] RB was changed two days later and every three days thereafter. For experiments involving modulation of endothelial cell media was supplemented with VEGF165 (Peprotech, 12.5 to 200 ng/ml). Alternatively (Protocol B, FIG. 31A), the protocol described by Takasato et al. was adapted for adherent culture: undifferentiated hPSCs were plated overnight and treated the following morning with 8 mM CHIR99021 in APEL media (StemCell Technologies) for 48-72 hr, 30 ng/ml FGF9 (Peprotech)+1 mg/ml heparin (StemCellTechnologies) in APEL for 96 hr, and cultured thereafter in APEL, replaced every three days. Alternatively, to generate endothelial cells without kidney organoids, 100,000 hPSCs/cm2 were plated in mTeSR1+10 mM Y27632+1 mM CHIR99021, replaced with RPMI+B27 minus insulin+1.5% Geltrex+50 ng/mL Activin A (R&D) at 24 h, RPMI+B27 minus insulin+40 ng/mL BMP4 (Peprotech)+1 mL CHIR99021 at 61 h, and StemPro 34 (Thermo Fisher Scientific)+2 mM Glutamax+50 mg/mL ascorbic acid (Sigma)+10 ng/mL BMP4+5 ng/mL bFGF (Peprotech)+300 ng/mL VEGF165 at 85 h for a 72-hour incubation.
Immunohistochemistry. For confocal microscopy, kidney organoids were differentiated on 96-well No, 1.5 coverslip glass-bottom plates (Mat-Tek). To fix, an equal volume of 8% paraformaldehyde (Electron Microscopy Sciences) was added to the culture media (4% final concentration) for 15 minutes at room temperature. […] Fluorescence images were captured using an inverted Nikon epifluorescence Eclipse Ti or A1R confocal microscope. […]

[7] = scRNA-seq, in the presence of VEGF

CC(=O)c1ccc(O)cc1 [4-HAP, 4-hydroxyacetophenone]
effect on PKD organoid cysts [1]: less activity than EMD | effect on cyst growth in PKD1−/− organoids ([1]; 300 μM (FIG. 22)): Positive effects | concentration range showing effects on cell stiffness (cell stiffness): 5 to 50 µM | effect (myosin): ↑ myosin IIB, IIC | myosin II paralogs affected (myosin): specifically affect non-muscle myosins IIB and IIC, but not IIA

Nc1ncnc2c1nc(Br)n2[C@@H]1O[C@@H]2COP(=O)(O)O[C@H]2[C@H]1O [8-Br-cAMP]
doses that did not produce cysts ([2]; PKD or control organoids, adherent): < 1 mM | swelling of adherent organoids into cyst-like structures ([2]; adherent cultures, added on day 21 of differentiation): induced swelling, although the effect was much less pronounced

N#C/C(=C\c1cc(O)c(O)c(O)c1)C(=O)NCCCNC(=O)/C(C#N)=C/c1cc(O)c(O)c(O)c1 [Bis-T-23]
effect (myosin): ↑ actin polymerization

O=S(=O)(NCCNC/C=C/c1ccc(Br)cc1)c1cccc2cnccc12 [H-89]
effect (myosin): ↓ PKA

Cc1ccccc1C(=O)Nc1ccc(C(=O)N2CCCC(O)c3cc(Cl)ccc32)c(C)c1 (stereo not shown) [Tolvaptan]
effect on PKD cysts (shrinking / prevention) ([3]; PKD patients): does not shrink PKD cysts or prevent them from forming | improve glomerular filtration rate (GFR) ([3]; PKD patients): ~1.5 ml/min/yr | side effects ([3]; PKD patients): can damage the liver; also recorded: frequent thirst and occasional severe hepatotoxicity | slow the growth of total kidney volume (TKV) ([3]; PKD patients): ~3 %/yr | effect on PKD, cyst growth ([3]; patients with severe disease): 3 % year

CCCCC[C@H](O)/C=C/[C@@H]1[C@@H](C/C=C\CCCC(=O)O)[C@H]2CO[C@@H]1C2 [U46619]
effect (myosin): ↑ Rho-kinase

Cc1ccc2c(c1)C(=O)C1(O)CCN(c3ccccc3)C1=N2 (stereo not shown) [blebbistatin]
change in cyst formation [4]: significant increase in cyst formation | diameter and number of cysts (PKD organoids; 7 days of treatment, suspension): Both the diameter and number of cysts were increased | increase in rate of cystogenesis (PKD organoids; PKD organoids, suspension, 3 days after treatment): 40% | damage to organoids (PKD organoids; at this concentration and time frame): no damage to organoids was observed | time after which PKD organoids formed cysts (PKD organoids; suspension culture, blebbistatin): 24 h | cyst size after removal of blebbistatin (PKD organoids; washout after 7 days of treatment): cyst size declined | increase in rate of cystogenesis [5]: 10%

CNc1ccc2oc(C[C@H]3O[C@@]4(CC[C@H]3C)O[C@H]([C@H](C)C(=O)c3ccc[nH]3)[C@H](C)C[C@H]4C)nc2c1C(=O)O [calcium ionophore]
effect (myosin): ↑ calmodulin

CCCC[C@@H](C=O)NC(=O)[C@H](CC(C)C)NC(=O)OCc1ccccc1 [calpeptin]
effect (myosin): ↑ Rho-kinase

C[C@@H](O)[C@@H]1NC(=O)[C@H](CCCCN)NC(=O)[C@@H](Cc2c[nH]c3ccccc23)NC(=O)[C@H](Cc2ccccc2)NC(=O)[C@@H](NC(=O)[C@H](N)Cc2ccccc2)CSSC[C@@H](C(=O)N[C@H](CO)[C@@H](C)O)NC1=O [octreotide]
effect on PKD organoid cysts [1]: the same effect is not seem; also recorded: do not affect PKD cysts

COC(=O)N1CCN(Cc2cccc(NC(=O)Nc3ccc(C)nc3)c2F)CC1 [omecamtiv mercabil]
effect on PKD organoid cysts [1]: the same effect is not seem; also recorded: do not affect PKD cysts | effect on cyst growth in PKD1−/− organoids ([1]; 20 μM, highest dose tried (FIG. 22)): ineffective at the highest dose that was tried | effect (myosin): ↑ cardiac myosin S1

VEGF
increase in ECs expressing CD31 and VE-cadherin ([6]; VEGF added during differentiation, immunofluorescence): approximately 10 fold | MCAM+ cells, share of all cells [6, 7]: 5% | MCAM+ cells, share of cells within the six kidney clusters [6, 7]: 9.5%
